Test system: NIH 3T3 cells
Assay: Methylene blue toxicity assay on NIH 3T3 cells
Format: cell-based
Conditions: amounts used in transfection, free assemblies or lipoplexes with luciferase plasmid, lipid/DNA charge ratios 1-16, chloride form
Description: Cytotoxicity was tested by the methylene blue (MB) staining assay [Elliott W M and Auersperg N. Biotech Histochem 68:29-35 (1993)]. In general, a known number of exponentially growing cells in 200 μL of medium were plated in 96-microwell, flat-bottomed plates. For each of the lipoplexes tested, 3 wells were used. Following 24 h of incubation in culture, 20 μL of different concentrations of various lipoplexes were added to each well containing untreated cells. Normal saline was added to the controls. Cells were exposed to lipoplex for 24 h. At the end of exposure the treated cells, as well as parallel control cells were washed and fixed by adding 50 μL of 2.5% glutaraldehyde to each well for 15 min. Fixed cells were rinsed 10 times with deionized water and once with borate buffer (0.1 M, pH 8.5), dried, and stained with MB (100 μL of 1% solution in 0.1 M borate buffer, pH 8.5) for 1 h at r. t. Stained cells were rinsed thoroughly with de-ionized water to remove any non-cell-bound dye and then dried. The MB bound to the fixed cells was extracted by incubation at 37° C. with 200 μL of 0.1 N HCl for 1 h, and the net optical density of the dye in each well was determined by a plate spectrophotometer (Labsystems Multyskan Bichromatic, Finland) at 620 nm.

CCCCCCCCCCCCC/C=C/[C@@H](O)[C@H](COC(=O)NCCCNCCCCNCCCN)NC(=O)CCCCCCCCCCCCCCC [CCS, N-palmitoyl D-erythro sphingosyl carbamoyl-spermine]
toxicity (living cells): non toxic

From US8242089B2, “Sphingolipids polyalkylamine conjugates for use in transfection” (Yissum Research Development Company of the Hebrew …, priority 2003, dated 2012)
